# According to patent US20220192984A1, “PHARMACEUTICAL COMPOSITIONS COMPRISING OTIC THERAPEUTIC AGENTS AND RELATED METHODS” (Frequency Therapeutics, Inc., priority 2018, published 2022):
# “And” between values parts separate entries of the source, which are not always exact repeats. Equal values may be shown once.
# Key:
# [1] = Perilymph Conc. listed for agents (Tables 14-25)
# [2] = Stability of the filtered solution prior to lyophilization by HPLC (Example 2); format: physicochemical; settings: room temperature
# Experimental: Stability Analysis: Prior to lyophilization, the stability of the filtered solution was analyzed by HPLC. The solution was held at room temperature for 4 hours, and samples of the solution was analyzed by HPLC during the period of time. […] Further, about 100% of sodium valproate remained in the solution.
# [3] = Stability of reconstituted higher concentration formulation at 2-8° C. for 8 hours (Table D); format: physicochemical; settings: Post Lyo
# [4] = Order of compounding of the test composition (Example 11, Table 26); format: physicochemical; settings: organic solvents
# Experimental: The first step in the sequence of compounding was to add pre-weighed solid sodium valproate to the stock P407 aqueous solution over ice. The temperature of P407 solution is important to keep the viscosity of this thermoreversible polymer in a liquid free-flowing state. After a clear solution was obtained, the CHIR99021-DMSO stock solution was added slowly to the NaVPA-P407-water solution. […] CHIR99021 also begins to degrade after extended periods of time in solution.
# [5] = Stability of the non-lyophilized test composition under refrigeration (Example 13); format: physicochemical; settings: freshly compounded test composition, refrigerator, 0 to 120 hours
# [6] = Stability of the reconstituted test composition in refrigerated syringes (Example 13); format: physicochemical; settings: for time assay levels remained stable with initial levels: reconstituted test composition in polypropylene syringes, refrigerated
# [7] = Storage stability of the lyophilized test composition (Table 27); format: physicochemical
# Experimental: The lyophilized composition was stored in a glass container with rubber closure and crimp seal under refrigeration for 6 months and at −20° C. for 24 months.
# Lgr5+ cells = experiment: Lgr5+ Assay (Lgr5+ cell assay in vitro); format: cell-based
# [8] = format: physicochemical; settings: lyophilized composition (Dosage 1) stored at 5° C., room temperature or 40° C. under 75% relative humidity in the dark
# Experimental: Stability Analysis: The stability of the lyophilized composition formulation (Dosage 1) was analyzed upon storage at 5° C., room temperature, or 40° C. under 75% relative humidity in the dark Samples were taken at various time points, reconstituted as described in Example 4 and samples analyzed by HPLC. […] About 100% of sodium valproate remained.
# Long-term stability of the lyophilized composition formulation (Dosage 1) was tested. The composition was held at room temperature (ambient) in the dark for two months and reconstituted as described in Example 4 below.
# [9] = Reconstitution time of lyophilized compositions (Tables E, 28, 35); format: physicochemical
# Experimental: Diluent 1, 0.85 mL+lyophilized cake. […] Gentle tapping on the exterior of the vessel to help the cake dissolve in the Diluent may be required while keeping it in fridge (or ice bath). To avoid degradation of the composition, minimize stirring and/or vortexing.
# Diluent 1, 0.95 mL+Placebo cake: Using a syringe, add the Diluent to the Placebo cake, and rest in a fridge or ice bath (2-8° C.) for 60 minutes or until clear solution is formed. Gentle tapping on the exterior of the vessel to help the cake dissolve in the Diluent may be required while keeping it in fridge (or ice bath). To avoid degradation of the composition, minimize stirring and/or vortexing.
# Powder P407 (i.e. non-lyophilized) can be obtained from BASF.
# Reconstitution of lyophilized P407 (Placebo) and powder P407 was done using 850 μL Diluent (see above for example preparations of a Diluent) in a vial.
# Therefore, to probe the effect of salts other than sodium valproate on reconstitution time, a poloxamer solution at 16.15% concentration either alone or including a salt (e.g. an inorganic salt or organic acid salt) at a concentration of 533.25 mM, was lyophilized. The lyophilized material was then reconstituted using Diluent for reconstitution (6.4% DMSO by wt. % in water) or with water.
# Building on the results of Examples 14 to 16, further lyophilized compositions were manufactured and had their reconstitution times evaluated. […] The further lyophilized compositions were made in accordance with Example 10, and reconstituted in accordance with Example 12.
# HDAC = settings: Mechanism HDAC Inhib 1, 2, 3, 8; cited from earlier work
# GSK-3 alpha = GSK-3 alpha (Homo sapiens, UniProt P49840); settings: cited from earlier work
# GSK-3 beta = GSK-3 beta (Homo sapiens, UniProt P49841); settings: cited from earlier work
# [10] = Table 18; cited from earlier work
# LSD1 = LSD1 (Homo sapiens, UniProt O60341); settings: Table 18; read-out: Literat. Cell EC50; cited from earlier work
# KDM1b = molecular target: T1, KDM1b (Homo sapiens, UniProt Q8NB78); settings: Table 18; read-out: Select KDM1b; cited from earlier work
# T1 sequence (Q8NB78 1-822): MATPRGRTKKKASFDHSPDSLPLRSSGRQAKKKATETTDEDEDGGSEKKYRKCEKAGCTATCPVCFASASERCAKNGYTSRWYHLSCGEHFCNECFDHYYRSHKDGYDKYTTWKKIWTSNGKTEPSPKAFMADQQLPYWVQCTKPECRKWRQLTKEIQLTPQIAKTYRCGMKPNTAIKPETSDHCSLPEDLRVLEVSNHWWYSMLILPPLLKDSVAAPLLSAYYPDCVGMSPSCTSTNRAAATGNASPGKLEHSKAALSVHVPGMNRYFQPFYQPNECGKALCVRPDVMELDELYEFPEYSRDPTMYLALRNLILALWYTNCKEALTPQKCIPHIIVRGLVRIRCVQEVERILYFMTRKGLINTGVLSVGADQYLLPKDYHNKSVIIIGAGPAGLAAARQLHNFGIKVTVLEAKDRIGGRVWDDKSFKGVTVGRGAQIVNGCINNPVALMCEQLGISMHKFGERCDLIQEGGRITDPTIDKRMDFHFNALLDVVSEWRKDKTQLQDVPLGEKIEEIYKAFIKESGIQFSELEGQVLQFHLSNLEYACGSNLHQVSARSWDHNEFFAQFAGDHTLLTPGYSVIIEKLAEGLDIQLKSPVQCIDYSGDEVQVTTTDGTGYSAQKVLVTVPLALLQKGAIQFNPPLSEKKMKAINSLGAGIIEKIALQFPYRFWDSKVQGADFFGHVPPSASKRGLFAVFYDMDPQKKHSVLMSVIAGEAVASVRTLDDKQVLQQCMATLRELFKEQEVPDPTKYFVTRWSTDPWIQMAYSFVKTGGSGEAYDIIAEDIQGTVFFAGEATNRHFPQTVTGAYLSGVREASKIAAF
# MAOs A and B = settings: Table 18, one value, isoform not told; read-out: Select MAOs A and B; cited from earlier work
# ErbB3/HER3 = ErbB3/HER3 (Homo sapiens, UniProt P21860); settings: read-out: HER 3 pKi or IC50 (converted); cited from earlier work
# HER4 = HER4 (Homo sapiens, UniProt Q15303); settings: cited from earlier work
# [11] = Table 14, listed concentration, no test described
# [12] = lyophilized composition GMP lot B17030018, Refrigerated, 1 month
# [13] = lyophilized composition GMP lot B17030018, Refrigerated, 2 months
# [14] = lyophilized composition GMP lot B17030018, Refrigerated, 3 months
# [15] = lyophilized composition GMP lot B17030018, Refrigerated, 6 months
# [16] = lyophilized composition GMP lot B17030018, Release, 0 month
# [17] = lyophilized composition GMP lot B17030018, −20, 1 month
# [18] = lyophilized composition GMP lot B17030018, −20, 2 months
# [19] = lyophilized composition GMP lot B17030018, −20, 3 months
# [20] = lyophilized composition GMP lot B17030018, −20, 6 months
# [21] = lyophilized composition GMP lot B17030018, −20, 9 months
# [22] = lyophilized composition GMP lot B17030018, −20, 12 months
# [23] = lyophilized composition GMP lot B17030018, −20, 18 months
# [24] = lyophilized composition GMP lot B17030018, −20, 24 months
# Chain of HER4 (Q15303 26-1308, species assumed): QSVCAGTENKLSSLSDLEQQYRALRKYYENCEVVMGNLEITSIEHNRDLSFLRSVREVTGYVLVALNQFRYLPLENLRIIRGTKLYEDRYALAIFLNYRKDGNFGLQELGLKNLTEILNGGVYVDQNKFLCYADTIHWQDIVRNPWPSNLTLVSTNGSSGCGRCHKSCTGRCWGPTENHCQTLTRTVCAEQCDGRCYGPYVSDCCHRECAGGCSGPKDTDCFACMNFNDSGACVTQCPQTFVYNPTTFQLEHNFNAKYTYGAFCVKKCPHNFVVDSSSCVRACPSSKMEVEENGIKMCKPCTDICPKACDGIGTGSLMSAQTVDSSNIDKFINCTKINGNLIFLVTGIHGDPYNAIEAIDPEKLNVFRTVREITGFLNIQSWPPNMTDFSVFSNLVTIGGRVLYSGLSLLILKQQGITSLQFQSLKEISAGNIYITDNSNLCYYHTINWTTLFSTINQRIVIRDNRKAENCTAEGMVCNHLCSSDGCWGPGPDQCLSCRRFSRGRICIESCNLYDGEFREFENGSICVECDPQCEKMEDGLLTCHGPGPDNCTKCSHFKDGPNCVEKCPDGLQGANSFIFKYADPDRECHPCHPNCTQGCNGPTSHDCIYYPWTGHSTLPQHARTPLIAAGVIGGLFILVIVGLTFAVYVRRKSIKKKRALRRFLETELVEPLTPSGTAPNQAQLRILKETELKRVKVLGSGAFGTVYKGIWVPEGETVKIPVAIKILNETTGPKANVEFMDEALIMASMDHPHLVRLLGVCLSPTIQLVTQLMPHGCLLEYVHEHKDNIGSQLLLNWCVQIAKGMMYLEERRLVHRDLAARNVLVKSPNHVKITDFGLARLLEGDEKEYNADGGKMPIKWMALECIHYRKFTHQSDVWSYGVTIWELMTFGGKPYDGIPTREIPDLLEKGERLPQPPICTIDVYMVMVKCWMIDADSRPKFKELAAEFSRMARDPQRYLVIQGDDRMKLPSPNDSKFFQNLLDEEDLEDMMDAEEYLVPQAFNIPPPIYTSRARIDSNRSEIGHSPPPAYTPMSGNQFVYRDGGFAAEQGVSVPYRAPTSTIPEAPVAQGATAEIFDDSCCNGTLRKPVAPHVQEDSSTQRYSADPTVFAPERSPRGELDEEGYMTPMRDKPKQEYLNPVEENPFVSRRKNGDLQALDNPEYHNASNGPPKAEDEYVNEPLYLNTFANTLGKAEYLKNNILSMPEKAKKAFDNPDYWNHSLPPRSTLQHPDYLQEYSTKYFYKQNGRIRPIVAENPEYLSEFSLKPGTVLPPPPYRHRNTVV
# Chain of ErbB3/HER3 (P21860 20-1342): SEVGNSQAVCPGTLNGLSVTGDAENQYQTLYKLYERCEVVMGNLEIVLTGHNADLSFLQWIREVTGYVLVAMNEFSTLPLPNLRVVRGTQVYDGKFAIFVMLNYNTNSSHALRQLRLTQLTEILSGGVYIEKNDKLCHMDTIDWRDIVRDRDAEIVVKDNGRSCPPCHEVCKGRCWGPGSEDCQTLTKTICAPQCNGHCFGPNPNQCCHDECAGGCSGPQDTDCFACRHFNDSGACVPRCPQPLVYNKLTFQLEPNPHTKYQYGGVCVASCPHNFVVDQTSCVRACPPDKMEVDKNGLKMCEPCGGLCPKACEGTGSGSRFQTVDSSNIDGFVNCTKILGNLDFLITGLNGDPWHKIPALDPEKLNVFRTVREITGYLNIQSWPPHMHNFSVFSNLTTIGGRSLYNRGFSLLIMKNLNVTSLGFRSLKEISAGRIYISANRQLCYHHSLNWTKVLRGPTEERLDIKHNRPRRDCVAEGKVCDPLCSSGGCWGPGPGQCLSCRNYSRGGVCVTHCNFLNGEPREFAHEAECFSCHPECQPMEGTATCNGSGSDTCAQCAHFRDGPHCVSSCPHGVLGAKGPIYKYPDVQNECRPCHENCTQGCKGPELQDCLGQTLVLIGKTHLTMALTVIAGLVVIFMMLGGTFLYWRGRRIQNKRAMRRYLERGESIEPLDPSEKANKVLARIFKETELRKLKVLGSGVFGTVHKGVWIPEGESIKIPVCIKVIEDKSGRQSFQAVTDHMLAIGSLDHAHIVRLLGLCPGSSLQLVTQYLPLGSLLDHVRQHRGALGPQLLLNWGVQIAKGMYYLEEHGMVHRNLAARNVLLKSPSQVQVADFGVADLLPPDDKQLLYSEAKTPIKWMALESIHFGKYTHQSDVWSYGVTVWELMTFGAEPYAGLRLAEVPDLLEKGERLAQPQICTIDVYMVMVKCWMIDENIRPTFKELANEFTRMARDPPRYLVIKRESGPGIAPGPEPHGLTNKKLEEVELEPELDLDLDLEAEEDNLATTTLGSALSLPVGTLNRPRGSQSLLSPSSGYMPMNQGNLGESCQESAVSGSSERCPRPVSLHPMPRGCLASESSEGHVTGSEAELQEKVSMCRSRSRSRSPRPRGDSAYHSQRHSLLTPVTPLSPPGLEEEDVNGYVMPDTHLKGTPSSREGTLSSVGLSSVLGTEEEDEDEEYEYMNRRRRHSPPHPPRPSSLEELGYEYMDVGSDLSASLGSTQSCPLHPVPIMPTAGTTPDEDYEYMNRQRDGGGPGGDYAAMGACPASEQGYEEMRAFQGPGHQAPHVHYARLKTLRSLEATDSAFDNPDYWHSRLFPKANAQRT
# Chain of GSK-3 beta (P49841 whole entry): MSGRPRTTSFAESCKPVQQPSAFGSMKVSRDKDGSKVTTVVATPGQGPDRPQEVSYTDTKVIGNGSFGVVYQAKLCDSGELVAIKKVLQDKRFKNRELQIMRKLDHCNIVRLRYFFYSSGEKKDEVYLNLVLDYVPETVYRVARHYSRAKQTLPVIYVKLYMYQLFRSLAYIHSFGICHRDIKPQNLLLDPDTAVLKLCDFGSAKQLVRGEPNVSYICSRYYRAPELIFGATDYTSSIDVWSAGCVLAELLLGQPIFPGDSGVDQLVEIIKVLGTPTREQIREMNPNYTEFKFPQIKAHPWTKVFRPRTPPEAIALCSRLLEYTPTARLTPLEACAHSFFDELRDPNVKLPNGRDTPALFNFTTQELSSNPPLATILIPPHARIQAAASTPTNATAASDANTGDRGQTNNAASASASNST
# Chain of GSK-3 alpha (P49840 whole entry): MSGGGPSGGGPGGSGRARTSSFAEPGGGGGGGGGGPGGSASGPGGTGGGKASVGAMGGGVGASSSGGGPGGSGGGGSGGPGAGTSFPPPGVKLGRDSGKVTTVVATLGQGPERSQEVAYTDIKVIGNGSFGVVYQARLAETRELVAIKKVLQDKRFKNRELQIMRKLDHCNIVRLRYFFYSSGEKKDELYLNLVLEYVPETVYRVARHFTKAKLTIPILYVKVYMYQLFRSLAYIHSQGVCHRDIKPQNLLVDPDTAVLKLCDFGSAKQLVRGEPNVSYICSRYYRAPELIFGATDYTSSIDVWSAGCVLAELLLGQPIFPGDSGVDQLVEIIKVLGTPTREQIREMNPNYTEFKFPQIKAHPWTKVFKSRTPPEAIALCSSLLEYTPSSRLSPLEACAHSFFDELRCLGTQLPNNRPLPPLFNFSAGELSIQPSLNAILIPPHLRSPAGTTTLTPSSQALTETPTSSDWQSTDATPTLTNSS
smiles,measurement,setting,value
Cc1cnc(-c2cnc(NCCNc3ccc(C#N)cn3)nc2-c2ccc(Cl)cc2Cl)[nH]1 [CHIR99021],Perilymph Conc,[1]; [11],2 to 6 µM
same,total impurities formed for CHIR99021,[2]; over 4 hours,about 4.6%
same,% Rel Error,[3],2.2% and 2.4%
same,Conc.,[3],3470 µg/mL and 3480 µg/mL
same,% Rel Error,"[3]; 24 Hrs, refrigerator 2-8° C.",−1.3% and 0.6%
same,Conc.,"[3]; 24 Hrs, refrigerator 2-8° C.",3360 µg/mL and 3420 µg/mL
same,solubility of CHIR99021,[4],"very limited in almost all organic solvents except polar solvents, such as DMSO"
same,assay level over time,[5],decreased from its initial level over time
same,time assay levels remained stable with initial levels,[6],6 h
same,decrease of assay level from its initial level,"[6]; reconstituted test composition in refrigerated syringes, sometime between 8 and 24 hours",37%
same,Assay (drug content),[7]; [12],105%
same,Assay (drug content),[7]; [13],105%
same,Assay (drug content),[7]; [14],104%
same,Assay (drug content),[7]; [15],102%
same,Assay (drug content),[7]; [16],103%
same,Assay (drug content),[7]; [17],107%
same,Assay (drug content),[7]; [18],107%
same,Assay (drug content),[7]; [19],104%
same,Assay (drug content),[7]; [20],103%
same,Assay (drug content),[7]; [21],102%
same,Assay (drug content),[7]; [22],99%
same,Assay (drug content),[7]; [23],100%
same,Assay (drug content),[7]; [24],100%
"CCCC(CCC)C(=O)O [Sodium Valproate, Sodium 2-propylpentanoate]",Lgr5+ Assay,"Lgr5+ cells; HDAC inhibitor table, upper end of the wrapped range 100 uM-4 mM",≤ 4 mM
same,Perilymph Conc,"[1]; HDAC inhibitor table, upper end of the wrapped range 100 uM-4 mM, no test described",≤ 4000 µM
same,sodium valproate remained in the solution,[2]; 4 hours,about 100%
same,sodium valproate remained,[8],About 100%
same,% Rel Error,[3],7.3% and 5.5%
same,Conc.,[3],102900 µg/mL and 101100 µg/mL
same,% Rel Error,"[3]; 24 Hrs, refrigerator 2-8° C.",5.3% and 7.5%
same,Conc.,"[3]; 24 Hrs, refrigerator 2-8° C.",101000 µg/mL and 103100 µg/mL
same,assay level over time,[5],remained constant over this time
same,time assay levels remained stable with initial levels,[6],6 h
same,assay level,"[6]; reconstituted test composition in refrigerated syringes, up to 24 hours",remained constant over this time
same,Assay (drug content),[7]; [12],100%
same,Assay (drug content),[7]; [13],100%
same,Assay (drug content),[7]; [14],100%
same,Assay (drug content),[7]; [15],99%
same,Assay (drug content),[7]; [16],100%
same,Assay (drug content),[7]; [17],101%
same,Assay (drug content),[7]; [18],100%
same,Assay (drug content),[7]; [19],100%
same,Assay (drug content),[7]; [20],100%
same,Assay (drug content),[7]; [21],99%
same,Assay (drug content),[7]; [22],99%
same,Assay (drug content),[7]; [23],101%
same,Assay (drug content),[7]; [24],98%
same,Reconstitution time (minutes) water + DMSO,"[9]; lyophilized 16.15% P407 with salt at 533.25 mM, reconstituted with Diluent ([…] DMSO in water)",25 min
same,Reconstitution time (minutes) with water,"[9]; lyophilized 16.15% P407 with salt at 533.25 mM, reconstituted with water",20 min
same,reconstitution time of lyophilized poloxamer with added organic acid salt,"[9]; poloxamer 16.15%, salt 533.25 mM",420 min
same,HDAC Potenc,HDAC,39 to 161 µM
"O=C1NC(=O)C(c2cnc3ccccn23)=C1c1cn2c3c(cc(F)cc13)CN(C(=O)N1CCCCC1)CC2 [LY2090314, 3-(9-fluoro-2-(piperidine-1-carbonyl)-1,2,3,4-tetrahydro-[1,4]diazepino[6,7,1-hi]indol-7-yl)-4-(imidazo[1,2-a]pyridin-3-yl)-1H-pyrrole-2,5-dione]",Lgr5+ Assay,Lgr5+ cells; Table 14,5e-06 to 2e-05 mM
same,Perilymph Conc,[1]; [11],0.005 to 0.02 µM
same,GSK-3 alpha,GSK-3 alpha,2.1 nM
same,GSK-3 beta,GSK-3 beta,0.9 nM
O=C(O)c1ccc(CN2CCC(CN[C@@H]3C[C@H]3c3ccccc3)CC2)cc1 [GSK-2879552],Lgr5+ Assay,"Lgr5+ cells; Table 18, lower end of concentration range",≥ 40 nM-
same,Perilymph Conc,"[1]; Table 18, lower end of range",≥ 40 nM-
same,Perilymph Conc,"[1]; Table 18, upper end of range",≤ 30 µM
same,Human Plasma Conc,[10],1 to 100 nM
same,EC50,LSD1,0.002 to 0.24 µM
same,IC50,KDM1b,20 µM
N[C@@H]1C[C@H]1c1ccccc1 [TCP],Lgr5+ Assay,"Lgr5+ cells; Table 18, concentration range or its upper end",0.0001 to 0.02 mM
same,Perilymph Conc,"[1]; Table 18, range or its upper end",0.1 to 20 µM
same,Human Plasma Conc Cmax,[10],0.03 to 0.2 µg/mL
same,IC50,MAOs A and B,1 µM
CN1CCN(Cc2ccc(NC(=O)Cc3ccc(Oc4cc(NC(=O)C5CC5)ncn4)cc3)cc2C(F)(F)F)CC1 [WS6],IC50,ErbB3/HER3,0.28 µM
CNC(=O)CN1CCC(Oc2cc3c(Nc4cccc(Cl)c4F)ncnc3cc2OC)CC1 [Sapitinib/AZD8931/],IC50,HER4,0.003 µM
